These results are taken from US20080280833A1, “Therapeutic Peptides Derived from Urokinase Plasminogen Activator Receptor” (priority 2005, published 2008).

In assay [1] the test system is rat smooth muscle cells (RSMC). The experiment in a line: Chemotaxis assay, rat smooth muscle cells. As to conditions: for inhibition of D2A-induced RSMC migration: attractant D2A; for inhibition of VN-induced RSMC migration: attractant VN. The class given is cell-based. The method, then:
(§1) Chemotaxis assay was performed as described (Degryse et al., 1999, 2001a, 2001b) with modified Boyden chambers. Filters (5 μm pore size, Neuro Probe, Gaithersburg, Md.) were treated with collagen I (100 μg/ml) and fibronectin (10 μg/ml, Roche).≈40-50,000 cells in serum-free DMEM were added to the upper well and the chemoattractants tested added to the lower well. When present, antibodies, or inhibitors were added in both wells. After overnight migration at 37° C., cells remaining on the upper surface of filters were scraped off and filters were fixed in methanol and stained in a solution of 10% (w/v) crystal violet in 20% (v/v) methanol. The experiments were performed at least twice in triplicate and the results, expressed as fold over control, are the mean ±SD of the number of cells counted in ten high power fields per filter. Random cell migration, i.e. migration in the absence of chemoattractant, was given the arbitrary value of 100%.

Assay [2] concerns human HT1080 fibrosarcoma cells. The assay is described as follows: Matrigel invasion assay. It is filed as cell-based. As to conditions: for inhibition of EGF-dependent invasion / inhibition of insulin-dependent invasion: HT1080, 100 pM; for inhibition of VN-induced invasiveness / inhibition of uPA-induced invasiveness: HT1080, at about the same concentration (around 1 pM); for inhibition of FN-induced invasion: HT1080, at the same concentration; for stimulation of Matrigel invasiveness of HT1080 cells: substance alone, 24 hours at 37° C.; for concentration of peak stimulation of Matrigel invasiveness: HT1080, dose-dependent.

In assay [3] the test system is Rat Smooth Muscle Cells and HT1080 Human Fibrosarcoma Cells. The assay is described as follows: Boyden chamber assays, pleiotropic inhibition of chemotaxis. It is filed as cell-based. The source says:
In Boyden chamber assays, D2A-Ala and GAAG inhibit not only VN-dependent and uPA-dependent chemotaxis (as reported above), but also EGF— and UTP-dependent chemotaxis. The effect is dose-dependent. Notice that the EGF-dependent and the UTP-dependent chemotaxis work through receptors (EGF-receptor and P2Y2 receptor, respectively), that are different among themselves and are different from those employed by uPA (uPAR) and VN (αvβ3). We conclude that these two inhibitors are general inhibitors of chemotaxis.

The test system of a further assay is KG-1 cells. The experiment in a line: Chemotaxis assay of non adherent cells, Boyden micro-chamber. It is filed as cell-based, human. As to conditions: for chemotaxis of KG-1 cells: peptide as chemoattractant, 1 hour at 37° C. On the procedure:
Chemotaxis assay of non adherent cells was performed as described (Degryse et al., 2001; FEBS lett. 505: 249-254) using modified Boyden micro-chamber with the exception that the filter was not treated. 50,000 cells were added in the top well in serum-free RPMI medium and allowed to migrate for 1 hour at 37° C. The molecules to be tested as chemoattractant were diluted in serum-free RPMI medium and added in the lower well of the Boyden chamber. Experiments were performed in triplicate. Results are the mean ±SD of the number of cells counted in five high power fields. Migration in the absence of chemoattractant is referred to as 100%.

In a further assay the test system is HEK-293-uPAR cells. The assay is described as follows: Chemotaxis assay, HEK-293-uPAR cells. The class given is cell-based, human. As to conditions: HEK-293-uPAR; for cell migration in the presence of VN: VN 1 μg/ml + peptide 1 pM; for cell migration: peptide alone 1 pM. On the procedure: as §1
Assay [4] deals with human smooth muscle cells from the coronary artery (CASMC). The assay is described as follows: Chemotaxis assay, human coronary artery smooth muscle cells. It is filed as cell-based. The method, then:
as §1

Assay [5] relates to human smooth muscle cells from the aorta (AoSMC). The experiment in a line: Chemotaxis assay, human aortic smooth muscle cells. The class given is cell-based. On the procedure:
as §1

The test system of a further assay is RSMC. The assay is described as follows: Immunofluorescence microscopy, actin cytoskeleton and cell morphology. It is filed as cell-based, rat. To be noted: 30 minutes at 37° C., peptide 1 pM or VN 1 μg/ml. The method, then:
(§2) As previously described (Degryse et al., 1999; 2004) 15,000-25,000 cells (20-40% confluence), were seeded on glass coverslips in 2 cm^2 well, cultured for 24 hours in DMEM plus 10% FCS, washed with PBS and cultured for another 24 hours without FCS. After stimulation, RSMC were fixed for 20 min at RT with 3% paraformaldehyde, 2% sucrose in PBS pH 7.5, washed 3 times with PBS-BSA 0.2%, permeabilized with 20 mM hepes pH 7.4, 300 mM saccharose, 50 mM NaCl, 3 mM MgCl2, 0.5% (v/v) Triton X-100 for 3 min at 4° C., and washed 3 times with PBS-BSA 0.2%. RSMC were incubated in PBS-BSA 2% for 15 min at 37° C., then with anti-Stat1 primary antibodies for 30 min at 37° C., washed 3 times with PBS-BSA 0.2%, and further incubated with PBS-BSA 2% for 15 min at 37° C. Cells were stained with the secondary TRITC-antibody and with FITC-phalloidin for visualization of filamentous actin, for 30 min at 37° C. DAPI (4′,6-diamidino-2-phenylindole, Roche) was used to label the nucleus. Finally, after 3 washes with PBS-BSA 0.2%, one with distilled water, coverslips were mounted with 20% (w/v) Mowiol. Fluorescence Photographs were taken with a Zeiss Axiophot microscope

Another assay relates to Stat1. The experiment in a line: Immunofluorescence microscopy, Stat1 distribution. The class given is cell-based, rat. To be noted: RSMC; for Stat1 activation and translocation into the nucleus: 30 minutes at 37° C., peptide 1 pM or VN 1 μg/ml. The method, then:
as §2
To quantify the activation of Stat1, random pictures were taken and nuclei positively stained for Stat1 were counted and expressed in percent.

A further assay concerns HEK-293 cells. The experiment in a line: Chemotaxis assay, HEK-293 cells. It is filed as cell-based, human. To be noted: for cell migration in the presence of VN: HEK-293, VN 1 μg/ml + peptide 1 pM; for cell migration: HEK-293, peptide alone 1 pM. On the procedure: as §1
The next assay addresses T1, uPAR-αvβ3 complexes (Homo sapiens, UniProt P05106+P06756).
T1 construct: purchased Chemicon (integrins); American Diagnostica (uPA)
The assay is described as follows: Pull-down assay, 125I-suPAR with purified αvβ3 integrin. The class given is binding. On the procedure: (§3) Soluble uPAR (suPAR) was radioiodinated (as for VN, see above) at a specific activity of 1.5×10^5 cpm/ng. A mix composed of 2 μg of either purified αvβ3 or α5β1 integrin, and […] of ^125I-suPAR was incubated for 4 hours at 4° C. in the absence (control) or in the presence of 4 μg of uPA with or without 5 μg of either D2A or D2A-Ala peptide in binding buffer, (RPMI plus 0.02% BSA, 10 mM HEPES pH 7.4, total volume 300 μl). Complexes were immunoprecipitated with 3 μg of anti-αvβ3 (LM609) or anti-α5β1 monoclonal antibody, and 60 μl of protein G-agarose beads (Amersham Biosciences), Beads were washed three times in binding buffer, extracted in reducing sample buffer, and proteins were fractionated by SDS-PAGE. Gels were analyzed by autoradiography and densitometry. Results are presented as percentage of relative density units normalized to uPA alone.

A further assay relates to LB6-D1HD3 cells. The assay is described as follows: Chemotaxis assay, LB6-D1HD3 cells (uPAR lacking domain 2). The class given is cell-based, mouse. On the procedure: as §1
A further assay deals with T2, uPAR-α5β1 complexes (Homo sapiens, UniProt P05556+P08648).
T2 construct: purchased Chemicon (integrins); American Diagnostica (uPA)
The experiment in a line: Pull-down assay, 125I-suPAR with purified α5β1 integrin. The class given is binding. To be noted: in the presence of uPA. On the procedure:
as §3

T1 sequence (P06756 31-889 limits assumed): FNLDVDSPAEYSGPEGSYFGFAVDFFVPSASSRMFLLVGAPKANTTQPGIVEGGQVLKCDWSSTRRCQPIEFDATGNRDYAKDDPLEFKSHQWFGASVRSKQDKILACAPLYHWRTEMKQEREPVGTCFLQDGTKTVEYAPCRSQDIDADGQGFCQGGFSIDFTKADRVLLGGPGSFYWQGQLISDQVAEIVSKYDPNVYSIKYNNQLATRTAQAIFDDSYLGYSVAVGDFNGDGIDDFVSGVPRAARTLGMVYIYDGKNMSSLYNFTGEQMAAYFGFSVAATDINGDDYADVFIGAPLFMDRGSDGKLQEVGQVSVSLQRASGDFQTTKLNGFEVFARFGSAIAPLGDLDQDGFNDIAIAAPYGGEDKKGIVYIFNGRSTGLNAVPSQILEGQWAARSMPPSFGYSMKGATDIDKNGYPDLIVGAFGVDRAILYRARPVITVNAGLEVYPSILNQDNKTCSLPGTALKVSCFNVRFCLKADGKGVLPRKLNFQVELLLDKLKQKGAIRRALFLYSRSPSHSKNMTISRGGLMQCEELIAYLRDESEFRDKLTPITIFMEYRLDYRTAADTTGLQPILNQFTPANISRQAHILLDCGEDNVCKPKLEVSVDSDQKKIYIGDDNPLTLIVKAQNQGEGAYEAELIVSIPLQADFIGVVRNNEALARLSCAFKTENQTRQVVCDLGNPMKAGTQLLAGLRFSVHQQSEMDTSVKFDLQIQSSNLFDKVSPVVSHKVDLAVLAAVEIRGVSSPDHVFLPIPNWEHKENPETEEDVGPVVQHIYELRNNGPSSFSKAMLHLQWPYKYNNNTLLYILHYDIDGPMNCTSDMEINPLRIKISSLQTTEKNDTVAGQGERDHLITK
T1 sequence (P06756 891-1048 limits assumed): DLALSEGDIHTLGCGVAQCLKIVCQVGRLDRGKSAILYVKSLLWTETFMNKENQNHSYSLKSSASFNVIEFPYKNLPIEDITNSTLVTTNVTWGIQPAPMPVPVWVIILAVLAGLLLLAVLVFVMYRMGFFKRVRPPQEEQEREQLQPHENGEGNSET
T1 sequence (P05106 27-788): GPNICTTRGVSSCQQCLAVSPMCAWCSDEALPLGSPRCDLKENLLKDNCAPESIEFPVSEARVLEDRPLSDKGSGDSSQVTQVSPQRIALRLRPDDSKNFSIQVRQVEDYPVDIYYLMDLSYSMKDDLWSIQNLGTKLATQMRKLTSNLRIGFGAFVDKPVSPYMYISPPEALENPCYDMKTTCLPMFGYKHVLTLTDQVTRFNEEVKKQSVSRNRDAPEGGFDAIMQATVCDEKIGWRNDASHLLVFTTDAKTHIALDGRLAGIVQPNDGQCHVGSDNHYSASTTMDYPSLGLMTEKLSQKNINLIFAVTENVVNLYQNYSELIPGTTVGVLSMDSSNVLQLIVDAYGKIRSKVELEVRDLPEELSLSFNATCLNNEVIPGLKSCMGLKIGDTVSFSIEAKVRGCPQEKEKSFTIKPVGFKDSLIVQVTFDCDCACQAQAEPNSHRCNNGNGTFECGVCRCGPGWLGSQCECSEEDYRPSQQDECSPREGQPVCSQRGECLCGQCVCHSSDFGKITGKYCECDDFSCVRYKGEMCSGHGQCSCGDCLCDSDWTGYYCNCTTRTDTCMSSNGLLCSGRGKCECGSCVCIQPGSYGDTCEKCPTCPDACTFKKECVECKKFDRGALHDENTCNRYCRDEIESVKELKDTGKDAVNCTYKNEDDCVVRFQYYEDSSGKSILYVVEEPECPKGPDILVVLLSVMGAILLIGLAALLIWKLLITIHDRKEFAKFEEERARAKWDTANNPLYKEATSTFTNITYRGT
T2 sequence (P08648 42-894 limits assumed): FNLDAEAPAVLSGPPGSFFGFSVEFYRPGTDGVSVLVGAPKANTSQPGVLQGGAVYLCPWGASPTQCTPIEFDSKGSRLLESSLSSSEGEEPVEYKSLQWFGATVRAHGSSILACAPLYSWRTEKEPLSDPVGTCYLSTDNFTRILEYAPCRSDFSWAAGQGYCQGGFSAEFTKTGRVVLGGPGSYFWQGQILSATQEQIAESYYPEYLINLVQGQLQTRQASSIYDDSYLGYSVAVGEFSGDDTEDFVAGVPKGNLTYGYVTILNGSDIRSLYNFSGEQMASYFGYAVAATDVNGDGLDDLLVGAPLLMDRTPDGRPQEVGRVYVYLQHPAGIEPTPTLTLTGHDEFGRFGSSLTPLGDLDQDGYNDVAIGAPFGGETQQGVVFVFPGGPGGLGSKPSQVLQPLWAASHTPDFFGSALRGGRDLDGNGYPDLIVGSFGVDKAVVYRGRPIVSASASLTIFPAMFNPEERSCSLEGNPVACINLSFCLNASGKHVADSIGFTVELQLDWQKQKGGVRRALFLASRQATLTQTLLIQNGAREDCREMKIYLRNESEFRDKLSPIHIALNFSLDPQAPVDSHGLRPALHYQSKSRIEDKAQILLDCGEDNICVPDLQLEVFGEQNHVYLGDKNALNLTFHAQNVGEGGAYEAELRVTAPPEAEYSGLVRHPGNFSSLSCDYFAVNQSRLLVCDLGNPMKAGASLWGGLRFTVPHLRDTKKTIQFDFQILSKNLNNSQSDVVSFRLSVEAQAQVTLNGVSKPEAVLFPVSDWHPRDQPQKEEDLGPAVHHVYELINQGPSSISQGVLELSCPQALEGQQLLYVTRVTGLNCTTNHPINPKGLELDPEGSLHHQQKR
T2 sequence (P08648 895-1049 limits assumed): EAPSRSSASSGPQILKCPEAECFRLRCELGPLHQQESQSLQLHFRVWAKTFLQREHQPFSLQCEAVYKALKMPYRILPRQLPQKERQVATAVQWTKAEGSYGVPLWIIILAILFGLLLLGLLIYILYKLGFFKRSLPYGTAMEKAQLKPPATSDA
T2 sequence (P05556 21-798): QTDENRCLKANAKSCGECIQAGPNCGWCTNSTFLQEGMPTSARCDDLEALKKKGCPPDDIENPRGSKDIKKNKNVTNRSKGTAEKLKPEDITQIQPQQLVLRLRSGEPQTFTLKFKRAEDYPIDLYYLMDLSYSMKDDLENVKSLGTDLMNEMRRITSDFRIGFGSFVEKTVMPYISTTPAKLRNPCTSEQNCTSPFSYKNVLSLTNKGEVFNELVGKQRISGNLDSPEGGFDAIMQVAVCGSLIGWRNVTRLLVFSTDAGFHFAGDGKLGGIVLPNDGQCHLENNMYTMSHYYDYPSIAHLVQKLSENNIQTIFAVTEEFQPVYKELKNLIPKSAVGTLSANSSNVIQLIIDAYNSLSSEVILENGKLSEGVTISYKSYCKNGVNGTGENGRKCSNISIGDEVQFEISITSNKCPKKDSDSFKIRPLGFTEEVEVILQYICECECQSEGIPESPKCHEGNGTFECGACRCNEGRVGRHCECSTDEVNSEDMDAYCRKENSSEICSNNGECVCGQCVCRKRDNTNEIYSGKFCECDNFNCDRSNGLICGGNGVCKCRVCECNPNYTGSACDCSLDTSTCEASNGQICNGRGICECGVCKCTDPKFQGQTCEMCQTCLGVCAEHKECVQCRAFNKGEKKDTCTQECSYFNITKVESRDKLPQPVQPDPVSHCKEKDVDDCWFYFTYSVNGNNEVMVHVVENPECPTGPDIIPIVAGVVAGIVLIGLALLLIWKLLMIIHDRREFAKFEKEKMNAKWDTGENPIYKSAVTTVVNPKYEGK

In the case of `N#C/C(=C/c1ccc(O)c(O)c1)C(=O)NCc1ccccc1` [AG-490, reference compound], in assay [1] (RSMC), the “inhibition of D2A-induced RSMC migration” value is given as “inhibited” and the “inhibition of VN-induced RSMC migration” value is given as “inhibited”.

Take `COc1cccc(-c2cc(=O)c3ccccc3o2)c1N` [PD98059, reference compound]: in assay [1] (RSMC), the “inhibition of D2A-induced RSMC migration” value is reported as “Neither VN- nor D2A-induced cell migration were blocked” and the “inhibition of VN-induced RSMC migration” value is given as “Neither VN- nor D2A-induced cell migration were blocked”.

In the case of “GAAG (Amino acid sequence motif) [shorter version of D2A-Ala]”, in assay [2], the “inhibition of EGF-dependent invasion” value is recorded as “inhibit”, the “inhibition of insulin-dependent invasion” value is “inhibit”, the “inhibition of VN-induced invasiveness” value is listed as “inhibit” and the “inhibition of uPA-induced invasiveness” value is reported as “inhibit”. Also, in assay [2], the “inhibition of FN-induced invasion” value is on record as “inhibit” and the “stimulation of Matrigel invasiveness of HT1080 cells” value (shortened to “stimulation … of HT1080 cells”) is “have no effects”. In [3], the “inhibition of VN-dependent chemotaxis” value is on record as “inhibit”, the “inhibition of uPA-dependent chemotaxis” value is on record as “inhibit”, the “inhibition of EGF-dependent chemotaxis” value is given as “inhibit” and the “inhibition of UTP-dependent chemotaxis” value was “inhibit”. The “inhibition of vitronectin (VN)-induced chemotaxis of KG-1 cells” value in the assay on KG-1 cells was “inhibited”.

For GEEG, in assay [2], the “concentration of peak stimulation of Matrigel invasiveness” value is listed as “around 1 pM” and the “stimulation … of HT1080 cells” value is recorded as “stimulate”.

For “IQEGAAGRPKDDR [D2A-Ala, D2A with two glutamic acids changed into two alanines]”, in [1] (RSMC), the “inhibition of FN-induced migration” value is listed as “inhibited”, the “inhibition of LN-induced migration” value is given as “inhibited”, the “stimulation of RSMC migration (chemotactic activity)” value (“stimulation of RSMC migration” for short) is given as “failed to stimulate cell migration” and the “inhibition of VN-induced RSMC migration” value is listed as “completely abrogated”. Moreover, in assay [1] (VN-stimulated RSMC), the “concentration at which an effect on VN-induced cell migration is already visible” value came out at 10 fM and the “concentration giving complete inhibition of VN-induced cell migration” value was 1 pM. In assay [2], the “inhibition of EGF-dependent invasion” value is “inhibit”, the “inhibition of insulin-dependent invasion” value is “inhibit”, the “inhibition of VN-induced invasiveness” value is “inhibit” and the “inhibition of uPA-induced invasiveness” value is “inhibit”. In addition, in assay [2], the “inhibition of FN-induced invasion” value was “inhibit” and the “stimulation … of HT1080 cells” value was “have no effects”. In the assay on HEK-293-uPAR cells, the “cell migration in the presence of VN” value is recorded as 108.18 ± 13.90 % of control and the cell migration is on record as 108.72 ± 17.37 % of control. Further, the “inhibition of VN-induced migration” value in assay [4] is recorded as “totally inhibited”. In addition, the “inhibition of VN-induced migration” value in assay [5] was “totally inhibited”. Besides, the “cell morphology and actin cytoskeleton organization” value in the assay with RSMC was “did not promote the change of morphology and reorganization of actin cytoskeleton”. The “Stat1 activation and translocation into the nucleus” value with Stat1 is reported as “failed to activate Stat1”. Also, in the assay with Stat1 (peptide 1 pM with VN 1 μg/ml), the “inhibition of VN-induced translocation of Stat1” value is given as “inhibited”. Besides, in the assay on HEK-293 cells, the “cell migration in the presence of VN” value is listed as 94.50 ± 19.58 % of control and the cell migration is listed as 110.19 ± 26.63 % of control. In addition, in assay [3], the “inhibition of VN-dependent chemotaxis” value is on record as “inhibit”, the “inhibition of uPA-dependent chemotaxis” value is given as “inhibit”, the “inhibition of EGF-dependent chemotaxis” value is recorded as “inhibit” and the “inhibition of UTP-dependent chemotaxis” value is “inhibit”. Further, the “inhibition of vitronectin (VN)-induced chemotaxis of KG-1 cells” value with KG-1 cells is reported as “inhibited”. Moreover, the “effect on uPAR-αvβ3 co-immunoprecipitation” value on uPAR-αvβ3 complexes (in the presence of uPA) was “prevented”.

On to IQEGEEGRPKDDR [D2A], for which, in assay [1] (RSMC), the “stimulation of RSMC migration” value was “equally active in stimulating migration”. For the same compound, the “additivity of chemotactic effects with VN” value in [1] (RSMC, D2A 1 pM combined with VN 1 μg/ml) is recorded as “did not further increase cell migration”. Also, in assay [2], the “concentration of peak stimulation of Matrigel invasiveness” value is “around 1 pM” and the “stimulation … of HT1080 cells” value was “stimulate”. In the assay on HEK-293-uPAR cells, the “cell migration in the presence of VN” value is listed as 400.88 ± 17.41 % of control and the cell migration is 325.48 ± 14.42 % of control. In the assay with RSMC, the “cell morphology and actin cytoskeleton organization” value is “a complete change of morphology and cytoskeleton organization occurred”. Besides, the “maximal increase of migration” value in the assay with LB6-D1HD3 cells (LB6-D1HD3 cells, at 10 pM, peptide per se) is 2 fold. Moreover, the “effect on response to VN of non-responsive LB6-D1HD3 cells” value in the assay on LB6-D1HD3 cells (with VN 1 μg/ml) is on record as “restored the response to VN”. Also, the “Stat1 activation and translocation into the nucleus” value with Stat1 was “induced its translocation into the nucleus”. In the assay with uPAR-α5β1 complexes, the “effect on uPA-induced co-immunoprecipitation of suPAR and α5β1” value is reported as “can also prevent”. For the same compound, in the assay with HEK-293 cells, the “cell migration in the presence of VN” value is reported as 190.23 ± 35.24 % of control and the cell migration was 106.98 ± 11.78 % of control. For the same compound, in the assay on KG-1 cells, the “chemotaxis of KG-1 cells” value is on record as “stimulated migration”. The “reduction of coimmunoprecipitated suPAR compared to uPA alone” value in the assay with uPAR-αvβ3 complexes (uPA plus peptide, αvβ3) was “approximately 50%”.

Regarding RDDKPRGEEGEQI [D2B], in assay [1] (RSMC), the “stimulation of RSMC migration” value is listed as “equally active in stimulating migration”. Moreover, in the assay on KG-1 cells, the “chemotaxis of KG-1 cells” value is on record as “also promotes the migration”.
